From patent US8044100B2, “Methods and compositions for treating amyloid-related diseases” (Bellus Health Inc., priority 2004, dated 2011)

Legend:
[1] = system: Aβ peptides (Aβ40, Aβ42) in the plasma and brain of TgCRND8 mice; assay: Short term treatment (14 or 28 days) in TgCRND8 mice: Aβ levels in plasma and brain by ELISA; assay type: in vivo, mouse;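 for Aβ40 Change Insoluble: symbols grade percent change in Aβ versus untreated control with plus for increase and minus for decrease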;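 for Aβ40 Change Soluble: symbols grade percent change in Aβ versus untreated control with plus for increase and minus for decrease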;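 for Aβ42 Change Insoluble: symbols grade percent change in Aβ versus untreated control with plus for increase and minus for decrease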
Method: The short term therapeutic effect of 19 compounds of the invention was studied. These compounds were administered over a 14 or 28 day period at the end of which the levels of Aβ peptides in the plasma and brain of TgCRND8 animals were determined.
Male and female transgenic mice from the 3rd and 4th B6C3F1 generations were used in this example and given daily subcutaneous or oral administrations of one of a series of compounds for 14 or 28 days. The following abbreviations are used to designate these animals from the 3rd and 4th generation backcross in the present protocol: TgCRND8-2.B6C3F1(N3); TgCRND8-2.B6C3F1 (N4).
Baseline animals (Group 1) consisted of naive TgCRND8-2. B6C3F1(N3) at 11±1 weeks of age. These mice were used to determine the Aβ levels in the plasma and brain of naive transgenic animals at the initiation of treatment.
Starting at 11 weeks of age (±1 week) animals received daily administration of their respective treatment for a period of 14 or 28 days (groups 2-21), at a dose of 250 mg/kg at 10 ml/kg or of vehicle only (water; group 2) or 1% methyl cellulose only (group 21). The route of administration was subcutaneous for water-soluble compounds and oral for compounds solubilized in methylcellulose 1%. (MC 1%). At the end of the treatment periods, plasma and perfused brains were collected for quantification of Aβ levels.
At 11±1 weeks of age for the Baseline group, and at the end of the treatment period (14 or 28 days) for Groups 2 to 21, at 24 hours after the last compound administration animals were sacrificed and samples collected. An approximate blood volume of 500 μl was collected from the orbital sinus and kept on ice until centrifugation at 4° C. at a minimum speed of 3,000 rpm for 10 minutes. Plasma samples were immediately frozen and stored at −80° C. pending analysis. The brains were removed, frozen, and stored at −80° C. awaiting analysis.
Brains were weighted frozen and homogenized with 4 volumes of ice cold 50 mM Tris-Cl pH 8.0 buffer with protease inhibitor cocktail (4 mL of buffer for 1 g of wet brain). Samples were spun at 15000 g for 20 minutes and the supernatants were transferred to fresh tubes. One hundred fifty (150) μl from each supernatant were mixed with 250 μl of 8M guanidine-HCL/50 mM Tris-HCL pH 8.0 (ratio of 0.6 vol supernatant:1 vol 8M guanidium/Tris-HCL 50 mM pH8.0) and 400 μL 5 M guanidium/Tris-HCL 50 mM pH8.0 were added. The tubes were vortexed for 30 seconds and frozen at −80° C. In parallel, pellets were treated with 7 volumes of 5 M guanidine-HCL/50 mM Tris-HCL pH 8.0 (7 mL of guanidine for 1 g of wet brain), vortexed for 30 seconds and frozen at −80° C. Samples were thawed at room temperature, sonicated at 80° C. for 15 minutes and frozen again. This cycle was repeated 3 times to ensure homogeneity and samples were returned to −80° C. pending analysis.
Aβ levels were evaluated in plasma and brain samples by ELISA using Human Aβ40 and Aβ42 Fluorometric ELISA kits from Biosource (Cat. No. 89-344 and 89-348) according to manufacturer's recommended procedures. In short, samples were thawed at room temperature, sonicated for 5 minutes at 80° C. (sonication for brain homogenates; no sonication for plasma samples) and kept on ice. Aβ peptides were captured using 100 μl of the diluted samples to the plate and incubated without shaking at 4° C. overnight. The samples were aspirated and the wells were rinsed 4 times with wash buffer obtained from the Biosource ELISA kit. The anti-Aβ40 or anti-Aβ42 rabbit polyclonal antiserum (specific for the Aβ40 or Aβ42 peptide) was added (100 μl) and the plate was incubated at room temperature for 2 hours with shaking. The wells were aspirated and washed 4 times before adding 100 μl of the alkaline phosphatase labeled anti-rabbit antibody and incubating at room temperature for 2 hours with shaking. The plates were then rinsed 5 times and the fluorescent substrate (100 μl) was added to the plate. […]

[2] = system: Aβ peptides (Aβ40, Aβ42) in the plasma and brain of TgCRND8 mice; assay: Long term treatment (8 or 16 weeks) in TgCRND8 mice: Aβ levels in plasma and brain; assay type: in vivo, mouse; details: BX subcutaneous, BW and BZ oral
Method: The long-term therapeutic effects of compounds of the present invention on cerebral amyloid deposition and β-amyloid (Aβ) levels in the plasma and in the brains of transgenic mice, TgCRND8, expressing the human amyloid precursor protein (hAPP) was studied. These compounds were administered over an 8 or 16 week period at the end of which the levels of Aβ peptides in the plasma and brain of TgCRND8 animals were determined. The goal of this study was to evaluate the efficacy of the compounds at modulating the progression of the amyloidogenic process in the brain and in the plasma of a transgenic mouse model of Alzheimer's disease (AD)
The mice used in the study consisted of animals bearing one copy of the hAPP gene (+/−) from the 2nd and 3rd generation progenies (N2 and N3) derived from backcrosses from TgCRND8.FVB(N2)AJ(N3) with B6AF1/J hybrid animals. • N1=TgCRND8.FVB(N2)AJ(N3)×B6AF1/J • N2=TgCRND8.FVB(N2)AJ(N3).B6AF1/J(N1)×B6AF1/J • N3=TgCRND8.FVB(N2)AJ(N3).B6AF1/J(N2)×B6AF1/J
The following abbreviations are used to designate these animals in the present study: TgCRND8.B6AF1/J(N2); TgCRND8.B6AF1/J(N3). Male and female transgenic mice were given daily subcutaneous (compound BX) or oral (compounds BW and BZ) administrations of the appropriate compounds for 8 or 16 weeks.
Baseline animals consisted of 9±1 week old naive TgCRND8.B6AF1/J animals from the 2nd and 3rd generations. These mice were used to determine the extent of cerebral amyloid deposits and Aβ levels in the plasma and brain of naive transgenic animals at the initiation of treatment.
Starting at 9 weeks of age (+1 week) animals received daily administration of their respective treatment for a period of 8 or 16 weeks, at a dose of 30 or 100 mg/kg at 10 ml/kg. The route of administration was subcutaneous for water-soluble compounds (Compound BX) and oral for compounds solubilized in methylcellulose 1% (MC 1%) (Compounds BW and BZ). At the end of the treatment periods, plasma and perfused brains were collected for quantification of Aβ levels.
Animal health was monitored, samples were collected and Aβ levels were measured as described above in the short term treatment study. Compounds were scored based on their ability to modulate levels of Aβ peptides in the plasma and the cerebral soluble/insoluble levels in the brain. Levels of Aβ observed in the plasma and brain of treated animals were compared to that of vehicle-treated (water) or methylcellulose-treated control groups and ranked according to the strength of the pharmacological effect. Increases in the levels of Aβ peptides are indicated using “+” symbols, while decreases in the levels of Aβ peptides are indicated using “−” symbols. The strongest effects are recorded as “+++” or “−−−” while the weakest are shown as “+” or “−”.
Specifically, increases in the levels of Aβ (relative to vehicle treated control) of 5 to 14% are scored as “+”; increases of 15 to 29% are scored as “++”; and increases of 30% or higher are scored as “+++”. Decreases in the levels of Aβ of 5 to 14% are scored as “−”; decreases of 15 to 29% are scored as “−−”; and decreases of 30% or more are scored as “−−−”. Additionally, changes of 4% or less in either direction are scored as “0”.

NAC peptide = target: T1, NAC peptide (Homo sapiens, UniProt P37840); assay: Binding to NAC peptide by electrospray mass spectrometry; details: 5:1 ratio compound:NAC (100 μM:20 μM or 200 μM:40 μM), pH 7.4; bound complex peak area / unbound NAC peak area
T1 construct: NAC is a 35 amino acid long peptide with highly hydrophobic stretches
Method: The ability of the compounds of the present invention to bind to NAC peptide in aqueous solution was evaluated. The binding ability correlates to the intensities of the peptide-compound complex peaks observed by the Electrospray Mass Spectrum. Millipore distilled deionized water was used to prepare all aqueous solutions. For pH determination a Beckman Φ36 pH meter fitted with a Corning Semi-Micro Combination pH Electrode was employed.
The optimal cone voltage was determined to be 20V.
Mass spectrometry—Mass spectrometric analysis was performed using a Waters ZQ 4000 mass spectrometer equipped with a Waters 2795 sample manager. MassLynx 4.0 (earlier by MassLynx 3.5) was used for data processing and analysis. Test compounds were mixed with disaggregated peptides in aqueous media (6.6% EtOH) at a 5:1 ratio (20 μM NAC:100 μM of test compound or 40 μM NAC:200 μM of test compound). The pH of the mixture was adjusted to 7.4 (+0.2) using 0.1% NaOH (3-5 μL). Periodically, NAC peptide solution at 20 μM or 40 μM was also prepared in the same fashion and run as control. The spectra were obtained by introducing the solutions to the electrospray source by direct infusion using a syringe pump at a flow rate of 25 μl/min, and scanning from 100 to 2100 Da in the positive mode. The scan time was 0.9 sec per scan with an inter-scan delay of 0.1 sec and the run time was 5 min for each sample. All the mass spectra were sum of 300 scans. The desolvation and source temperature was 70° C. and the cone and capillary voltage were maintained at 20 V and 3.2 kV respectively.
The total area under the peaks for the bound NAC-compound complex divided by total area under the peaks for unbound NAC was determined for each compound tested.

[3] = brain homogenate, Day 14, methylcellulose group, daily oral
[4] = brain homogenate, Day 28, methylcellulose group, daily oral
[5] = plasma, Day 28, methylcellulose group, daily oral

O=S(=O)(O)CCCNC1C2CC3CC(C2)CC1C3 (centres unmarked) [BZ]
Aβ40 Change Insoluble [1, 3]: −−− (decreases of 39% or more)
Aβ42 Change Insoluble [1, 3]: −− (decreases of 20 to 38%)
Aβ40 Change Insoluble [1, 4]: −− (decreases of 20 to 38%)
Aβ40 Change Soluble [1, 4]: −− (decreases of 20 to 38%)
Aβ42 Change Insoluble [1, 4]: −− (decreases of 20 to 38%)
Aβ40 Change ([1]; plasma, Day 14, methylcellulose group, 250 mg/kg daily oral): + (increases in the levels of Aβ (relative to untreated control) of 20 to 39%)
Aβ40 Change [1, 5]: ++ (increases of 40 to 69%)
Aβ42 Change [1, 5]: ++ (increases of 40 to 69%)
Brain Abeta40 insoluble ([2]; 30 mg/kg daily, 8 wks): −− (decreases of 15 to 29%)
Brain Abeta40 soluble ([2]; 30 mg/kg daily, 8 wks): 0 (changes of 4% or less in either direction)
Brain Abeta42 insoluble ([2]; 30 mg/kg daily, 8 wks): −−− (decreases of 30% or more)
Brain Abeta42 soluble ([2]; 30 mg/kg daily, 8 wks): 0 (changes of 4% or less in either direction)
Plasma Abeta40 ([2]; 30 mg/kg daily, 8 wks): 0 (changes of 4% or less in either direction)
Plasma Abeta42 ([2]; 30 mg/kg daily, 8 wks): 0 (changes of 4% or less in either direction)
Brain Abeta40 insoluble ([2]; 30 mg/kg daily, 16 wks): + (increases in the levels of Aβ (relative to vehicle treated control) of 5 to 14%)
Brain Abeta40 soluble ([2]; 30 mg/kg daily, 16 wks): 0 (changes of 4% or less in either direction)
Brain Abeta42 insoluble ([2]; 30 mg/kg daily, 16 wks): 0 (changes of 4% or less in either direction)
Brain Abeta42 soluble ([2]; 30 mg/kg daily, 16 wks): + (increases in the levels of Aβ (relative to vehicle treated control) of 5 to 14%)
Plasma Abeta40 ([2]; 30 mg/kg daily, 16 wks): 0 (changes of 4% or less in either direction)
Plasma Abeta42 ([2]; 30 mg/kg daily, 16 wks): + (increases in the levels of Aβ (relative to vehicle treated control) of 5 to 14%)
Brain Abeta40 insoluble ([2]; 100 mg/kg daily, 8 wks): 0 (changes of 4% or less in either direction)
Brain Abeta40 soluble ([2]; 100 mg/kg daily, 8 wks): ++ (increases of 15 to 29%)
Brain Abeta42 insoluble ([2]; 100 mg/kg daily, 8 wks): − (Decreases in the levels of Aβ of 5 to 14%)
Brain Abeta42 soluble ([2]; 100 mg/kg daily, 8 wks): 0 (changes of 4% or less in either direction)
Plasma Abeta40 ([2]; 100 mg/kg daily, 8 wks): ++ (increases of 15 to 29%)
Plasma Abeta42 ([2]; 100 mg/kg daily, 8 wks): +++ (increases of 30% or higher)
Brain Abeta40 insoluble ([2]; 100 mg/kg daily, 16 wks): 0 (changes of 4% or less in either direction)
Brain Abeta40 soluble ([2]; 100 mg/kg daily, 16 wks): −− (decreases of 15 to 29%)
Brain Abeta42 insoluble ([2]; 100 mg/kg daily, 16 wks): + (increases in the levels of Aβ (relative to vehicle treated control) of 5 to 14%)
Brain Abeta42 soluble ([2]; 100 mg/kg daily, 16 wks): − (Decreases in the levels of Aβ of 5 to 14%)
Plasma Abeta40 ([2]; 100 mg/kg daily, 16 wks): ++ (increases of 15 to 29%)
Plasma Abeta42 ([2]; 100 mg/kg daily, 16 wks): ++ (increases of 15 to 29%)

NCCOS(=O)(=O)O [NH2CH2CH2OSO3H]
Binding Strength (NAC peptide): − (None; when the total binding is between 30% and 0%)

O=S(=O)([O-])CCCCS(=O)(=O)[O-].[Na+].[Na+] [NaO3SCH2(CH2)2CH2SO3Na]
Binding Strength (NAC peptide): − (None; when the total binding is between 30% and 0%)

O=S(=O)(O)CCCNC1C2CC3CC(C2)CC1C3 (centres unmarked) [drawing 749]
Binding Strength (NAC peptide): ++ (Moderate; when the total binding is between 120% and 70%)

NCCCOS(=O)(=O)[O-].[Na+] [H2NCH2CH2CH2OSO3Na]
Binding Strength (NAC peptide): ++ (Moderate; when the total binding is between 120% and 70%)

O=S(=O)(O)CC(O)CNC1CCCCC1 (centres unmarked) [drawing 751]
Binding Strength (NAC peptide): +++ (Strong; when the total binding is 120% and higher)

O=S(=O)([O-])OCCCOS(=O)(=O)[O-].[Na+].[Na+] [NaO3SOCH2CH2CH2OSO3Na]
Binding Strength (NAC peptide): − (None; when the total binding is between 30% and 0%)

NCCS(=O)(=O)O [H2NCH2CH2SO3H]
Binding Strength (NAC peptide): + (Weak; when the total binding is between 70% and 30%)

NCCCCS(=O)(=O)O
Binding Strength (NAC peptide): + (Weak; when the total binding is between 70% and 30%)

CC(C)(C)NCCCS(=O)(=O)O [drawing 748]
Binding Strength (NAC peptide): ++ (Moderate; when the total binding is between 120% and 70%)
